The record followed here is ChEMBL document CHEMBL1146756, “Studies on aromatic compounds: inhibition of calpain I by biphenyl derivatives and peptide-biphenyl hybrids” (Bioorg Med Chem Lett, 2004).

For assay [1], the target named is T1, Calpain small subunit 1 (Sus scrofa, UniProt P04574).
T1 sequence (P04574 whole entry): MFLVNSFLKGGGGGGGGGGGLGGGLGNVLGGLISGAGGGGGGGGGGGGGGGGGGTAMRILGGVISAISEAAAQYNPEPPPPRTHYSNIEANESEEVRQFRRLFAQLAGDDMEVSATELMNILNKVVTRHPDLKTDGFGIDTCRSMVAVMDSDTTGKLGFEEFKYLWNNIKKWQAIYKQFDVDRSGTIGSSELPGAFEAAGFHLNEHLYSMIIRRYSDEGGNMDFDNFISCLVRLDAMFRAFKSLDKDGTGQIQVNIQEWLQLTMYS
In words: Ability to displace labelledcasein from calpain I in porcine erythrocytes; Weak inhibitor. The class given is cell-based.

Assay [2] is described as follows: Displacement of casein from calpain 1 in porcine erythrocytes. It counts as cell-based, Sus scrofa.
Assay [3] has as its target T1, Calpain small subunit 1. In words: Ability to displace labelledcasein from calpain I in porcine erythrocytes; Noninhibitor. The class given is cell-based.

As to `CNC(=O)[C@@H](Cc1ccccc1)NC(=O)[C@H](Cc1ccccc1)NC(=O)c1ccccc1-c1ccccc1C(=O)N[C@@H](CC(C)C)C(=O)N[C@@H](CCSC)C(=O)OC`, in assay [1], the IC50 entry is listed as “Weak inhibitor”.
In assay [2], `COC(=O)[C@H](Cc1ccccc1)NC(=O)[C@H](Cc1ccccc1)NC(=O)c1ccccc1-c1ccccc1C(=O)N[C@@H](Cc1ccccc1)C(=O)N[C@@H](Cc1ccccc1)C(=O)OC` returned an IC50 of 0.098 µM.
Regarding `COC(=O)[C@H](Cc1ccccc1)NC(=O)c1ccccc1-c1ccccc1C(=O)N[C@@H](Cc1ccccc1)C(=O)OC`, the IC50 in assay [2] was determined as 0.064 µM. Compared with the last molecule, the IC50 is about 1.5-fold lower.
Regarding `COC(=O)[C@H](Cc1ccccc1)NC(=O)c1ccccc1-c1ccccc1C(=O)O`, the IC50 entry in assay [3] is listed as “No inhibition”.
Regarding `COC(=O)[C@@H](NC(=O)[C@H](Cc1ccccc1)NC(=O)c1ccccc1-c1ccccc1C(=O)N[C@@H](Cc1ccccc1)C(=O)Nc1ccccc1-c1ccccc1NC(=O)[C@H](C)NC(=O)OCC1c2ccccc2-c2ccccc21)C(C)C`, the IC50 in assay [2] turned out to be 41 µM. In other words, the double-digit micromolar range.
Molecule `COC(=O)[C@H](Cc1ccccc1)NC(=O)[C@H](CCSC)NC(=O)c1ccccc1-c1ccccc1C(=O)N[C@@H](CCSC)C(=O)N[C@@H](Cc1c[nH]c2ccccc12)C(=O)OC` returned an IC50 in assay [2] of 77 µM. Compared with the last molecule, the IC50 is about 1.9-fold higher.
Consider `COC(=O)[C@H](Cc1ccc(O)cc1)NC(=O)c1ccccc1-c1ccccc1C(=O)N[C@@H](Cc1ccc(O)cc1)C(=O)OC`, for which the IC50 result in assay [3] is given as “No inhibition”.
In turn, `COC(=O)[C@H](Cc1c[nH]c2ccccc12)NC(=O)c1ccccc1-c1ccccc1C(=O)N[C@@H](Cc1c[nH]c2ccccc12)C(=O)OC` registered a half-inhibitory concentration (IC50) in assay [2] of 0.037 µM.
Molecule `COC(=O)[C@H](Cc1ccccc1)NC(=O)[C@@H](NC(=O)c1ccccc1-c1ccccc1C(=O)N[C@H](C(=O)N[C@@H](Cc1ccccc1)C(=O)OC)C(C)C)C(C)C` displayed a 50% inhibitory concentration (IC50) in assay [2] of 0.024 µM.
With `COC(=O)[C@H](Cc1ccc(O)cc1)NC(=O)c1ccccc1-c1ccccc1C(=O)N[C@@H](Cc1ccccc1)C(=O)N[C@@H](CCSC)C(=O)OC`, in assay [1], the IC50 entry was “Weak inhibitor”.
`O=C(N[C@@H](Cc1ccc(O)cc1)C(=O)O)c1ccccc1-c1ccccc1C(=O)N[C@@H](Cc1ccc(O)cc1)C(=O)O`: the 50% inhibitory concentration (IC50) in assay [2] came to 200 µM.
Same read-out and setting: the same measure for `COC(=O)[C@@H](NC(=O)c1ccccc1-c1ccccc1C(=O)N[C@H](C(=O)OC)C(C)C)C(C)C`: 7 µM; for `O=C(N[C@@H](Cc1ccccc1)C(=O)O)c1ccccc1-c1ccccc1C(=O)N[C@@H](Cc1ccccc1)C(=O)O`: 0.07 µM.
Take `CCC(C)[C@H](NC(=O)c1ccccc1-c1ccccc1C(=O)N[C@H](C(=O)OC)C(C)CC)C(=O)OC` (some centres not stated): the IC50 entry in assay [3] is “No inhibition”.
Molecule `C=CCO[C@H]1O[C@H](CNC(=O)c2ccccc2-c2ccccc2C(=O)N[C@@H](Cc2ccc(O)cc2)C(=O)OC)C=C[C@@H]1CC(=O)N[C@@H](Cc1ccccc1)C(=O)N[C@@H](CC(C)C)C(=O)NC` showed a half-maximal inhibitory concentration (IC50) in assay [2] of 116 µM.
Regarding `COC(=O)[C@H](C)NC(=O)c1ccccc1-c1ccccc1C(=O)N[C@@H](C)C(=O)OC`, in assay [3], the IC50 entry is on record as “No inhibition”.
For the molecule `COC(=O)[C@H](Cc1c[nH]cn1)NC(=O)c1ccccc1-c1ccccc1C(=O)N[C@@H](Cc1c[nH]cn1)C(=O)OC`, the half-maximal inhibitory concentration (IC50) entry in assay [3] is “No inhibition”.
